The source of these data is patent publication US10858305B2, “Perillyl alcohol-3-bromopyruvate conjugate and methods of treating cancer” (NeOnc Technologies, Inc., priority 2016, dated 2020).

Entries after “also recorded” stand apart in the source; their conditions may differ.

What all share (assay type): cell-based, human
Assay [1] deals with HCT116 colon cancer cells. The experiment in a line: MTT assay with pan-caspase inhibitor zVAD pre-treatment. Conditions: 50 μM zVAD 1 hour before drug, MTT after 24 hours. As to the method:
(§1) (A) FACS analysis of HCT116 cells after treatment for 2, 4, or 8 hours with vehicle, 30 μM 3-BP, 30 μM NEO218, or 1 μM staurosporine (STS). […] (B) Western blot analysis of apoptotic markers. In the top section, MDA-MB-231 cells were treated with 30 μM NEO218 or 1 μM STS for various time points. In the lower section, HCT116 cells were treated with the indicated concentrations of 3-BP, NEO218, or STS for 16 hours. In all cases cell lysates were prepared and analyzed for the well-established apoptotic markers cleaved PARP, cleaved (i.e., activated) caspase 7 (cl. C-7), and phosphorylated (i.e., active) H2AX. Actin was used as a loading control. (C) HCT116 cells were pretreated with 50 μM Z-VAD-FMK for one hour, followed by the addition of increasing concentrations of 3-BP or NEO218. Cell viability was determined by MTT assay 24 hours later. Data points are averages from n=3.
The capacity for NEO218 to induce apoptosis was further evaluated in a series of experiments using an MTT assay. The apoptosis-blocker zVAD (z-VAD-FMK), an agent that acts as a pan-caspase inhibitor, was used. HCT116 colon cancer cells were treated for 1 hour with or without 50 μM zVAD, followed by increasing concentrations of NEO218 or 3-BP. Twenty-four hours thereafter, cell viability was determined by MTT assay.
On the technique in general: Formazan colour is commonly taken as a measure of viable cells.

Assay [2] concerns HCT116 3-BP survivors (MCT-1-negative) and parental cells. The assay can be described thus: Selection of 3-BP survivors from HCT116 cells and MTT chemosensitivity. As for the experimental part: (A) Immunostaining of HCT116 cells in the absence of any drug treatment (parental cells; left panel) and after 2-week recovery from highly toxic 48-hour treatment with 40 μM 3-BP (3-BP survivors; right panel). Arrows point to a few apparently MCT-1-negative cells among the otherwise MCT-1-positive parental population. Note preferential staining of the cell membrane in the positive cells, consistent with the known transmembrane location of MCT-1; no such staining could be detected in the 3-BP survivors. (B) Western blot analysis of MCT-1 expression levels two weeks after 48-hour treatment of cells with increasing concentrations of 3-BP. […] GAPDH was used as a loading control. (C) Chemosensitivity of 3-BP survivors were compared to parental cells in MTT assays. Both populations were treated with increasing concentrations of 3-BP or NEO218. Survival of untreated cells was set at 100% (n≥3±SE).
Upon closer inspection of individual cells by immunohistochemistry, we detected a small number of apparently MCT-1-negative cells among the otherwise mostly MCT-1-positive population (FIG. 20A). This aspect was investigated further by treating HCT116 cells with 40 μM, representing a concentration that reduces apparent viability by 75% in MTT assays (FIG. 17A) and blocks colony formation by 99% in CFAs. […] These cells, which we called 3-BP survivors, were further analyzed. Intriguingly, no MCT-1 expression could be detected in these cells, neither by immunohistochemistry (FIG. 20A) nor by Western blot (FIG. 20B). […] Intriguingly, NEO218 had no such effect.

Assay [3] relates to cleaved caspase 7, cleaved PARP, γ-H2AX in MCF7, MDA-MB-231 and HCT116 cells. The experiment in a line: Western blot for apoptosis markers. Conditions: STS as positive control. As to the method: as §1
The capacity for NEO218 to induce apoptosis was evaluated in a series of experiments. Three different cell lines were treated 3-BP and NEO218. Drug-treated cells were harvested, and cellular lysates were analyzed by Western blot for the presence of the three well-established markers of apoptosis: • cleaved caspase 7 (cl. C7); • cleaved (cl.) vs. full-length (f.l.) PARP; and, • induction of γ-H2AX (which indicates DNA cleavage).
The appearance of cl. C7 and cl. PARP is indicative of ongoing apoptotic processes. In all cases, lysates were also probed for the presence of actin as a control.
Two breast cancer cell lines (MCF7 and MDA-MB-231) and one colon cancer cell line (HCT116) were treated with increasing concentrations of NEO218 or 3-BP. As a control, they were also treated with staurosporine (STS), a known potent inducer of apoptosis. Western blot analyses for the presence of apoptosis markers are shown in the left panels of FIG. 6.
Total cell lysates were analyzed by Western blot analysis as described earlier. Primary antibodies against cleaved caspase 7 and PARP were obtained from Cell Signaling Technology (Danvers, Mass.), and antibodies against actin (C-11) and MCT1 (H-1) were obtained from Santa Cruz Biotechnology (Santa Cruz, Calif.). All antibodies were used according to the manufacturers' recommendations, except that in the case of MCT1 detection, the boiling step was omitted before loading the samples onto the polyacrylamide gel. All immunoblots were repeated at least once to confirm the results.
On the technique in general: In western blotting, separated proteins are transferred to a membrane and probed.

The test system of assay [4] is HCT116 cells. The assay can be described thus: Colony formation assay in HCT116 cells. Conditions: for IC50: Homo sapiens, HCT-116, HCT116, 48 hours drug then 10-14 days, read-out: half-maximal effect, CFA. As for the experimental part:
(A) MTT assay was performed after 24 hours. […] (B) LDH assay was performed after […]. LDH release by untreated cells was set to 1. Relative fold increase is shown (n=3).
Depending on the cell line (and plating efficiency), 250-800 cells were seeded into each well of a 6-well plate and treated as described in detail previously. After 12-16 days, colonies (defined as groups of >50 cells) were visualized by staining for 4 hours with 1% methylene blue (in methanol), and then were-counted. Experiments were repeated at least once, but usually more often under different conditions.

The test system of assay [5] is HCT116 cells. The experiment in a line: MTT assay with or without antioxidants NAC or GSH. Conditions: HCT116, MTT after 24 hours. As to the method: (A) HCT116 cells were treated with 40 μM 3-BP or NEO218 in the presence or absence of 1 mM NAC, 1 mM GSH, or 50 mM methyl-pyruvate (or sodium pyruvate, which produced similar outcomes). Cell viability was determined 24 hours later by MTT assay. (B) HCT116 cells were treated with 30 or 100 μM 3-BP or NEO218. After 30 minutes, cell lysates were prepared and analyzed for GAPDH activity. (C) Lysates from non-drug-treated MDA-MB-231 cells were mixed with 3-BP or NEO218 in the presence or absence of NAC or GSH at the concentrations mentioned in A. After 1 hour of incubation, GAPDH activity was determined. GAPDH activity in the absence of drug treatment was set at 100% (corresponding to 0.06 units/min×10^6 cells).
Tumor cells were treated with either NAC or GSH, in combination with NEO218 or 3-BP. HCT116 cells were treated with increasing concentrations of NEO218 and 3-BP (individually), in the presence or absence of 5 mM NAC or 1 mM GSH. After 24 hours, cell viability was determined by MTT assay.

With `O=C(O)C(=O)CBr` [3-BP, 3-bromopyruvate], the “effect of zVAD pre-treatment on drug-induced cell death” value in assay [1] is listed as “did not affect the cytotoxic IC50; also recorded: did not prevent induction of cell death”. For the same compound, the IC50 in assay [2] (Homo sapiens, HCT-116, read-out: IC50 (MTT)) is above 100000 nM; with HCT116 cells [4], around 3000 nM. In assay [3], the “induction of apoptosis markers (cleaved PARP, cleaved caspase 7, γ-H2AX)” value is on record as “responded only minimally, if at all”. Besides, the “block of colony formation in CFA” value in the assay with HCT116 cells [4] (HCT116, 40 μM) is 99%. In the assay on HCT116 cells [5], the “effect of antioxidants NAC or GSH on drug-induced cell death” value is listed as “profound protection; also recorded: drug-induced cell death was completely prevented”.
For `C=C(C)[C@@H]1CC=C(COC(=O)C(=O)CBr)CC1` [NEO218, 3-bromo-2-oxo-propionic acid 4-isopropenyl-cyclohex-1-enylmethyl ester], the “effect of zVAD pre-treatment on drug-induced cell death” value in assay [1] is recorded as “did not affect the cytotoxic IC50; also recorded: did not prevent induction of cell death”. Further, in assay [2] (3-BP survivors of HCT116, MTT), the “sensitivity of 3-BP survivors” value was “retained their high sensitivity toward NEO218”. Moreover, in assay [2] (parental HCT116, 40 μM), the “surviving cells after treatment” value is “did not leave any surviving cells”. In assay [3], the “induction of apoptosis markers (cleaved PARP, cleaved caspase 7, γ-H2AX)” value is “responded only minimally, if at all; also recorded: barely affects these same markers”. For the same compound, the IC50 in the assay with HCT116 cells [4] was around 3000 nM. Also, the “effect of antioxidants NAC or GSH on drug-induced cell death” value in the assay with HCT116 cells [5] is “antioxidant treatment similarly protected cells; also recorded: drug-induced cell death was completely prevented”.
